One experiment has as its target recombinant human HDAC6 (Homo sapiens (Human), UniProt Q9UBN7). Kind of experiment: Enzymatic screening, HDAC6 inhibition (fluorogenic FdL_G substrate). The format is biochemical. A digest of the protocol: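 Enzyme was preincubated with compound (8 doses, triplicate, 1% DMSO) in 25 mM Tris-HCl pH 8, 130 mM NaCl, 0.05% Tween-20, 10% glycerol, with BSA. A FLUOR DE LYS-Green substrate was then added, and fluorescence was read after developer plus 2 μM TSA.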

Another experiment addresses recombinant human HDAC1 (Homo sapiens (Human), UniProt Q13547). The experiment in a line: Enzymatic screening, HDAC1 inhibition (fluorogenic FdL_G substrate). The class given is biochemical. The gist of the method: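 Recombinant human HDAC1 inhibition was measured fluorometrically using the FLUOR DE LYS-Green (FdL_G) substrate. Compounds at 8 doses (1% DMSO final) in Tris-HCl pH 8 buffer with NaCl, Tween-20 and glycerol were preincubated in triplicate with enzyme and 1 mg/mL BSA, then given substrate. Developer I plus 2 μM TSA was added, and fluorescence read after 25 minutes in the dark.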

Experimental findings from patent publication US20230286970A1, “NOVEL OXADIAZOLE-BASED SELECTIVE HDAC6 INHIBITORS” (ITALFARMACO S.P.A., priority 2020, published 2023) are described below.

One may read the IC50 as the point on the concentration scale where inhibition reaches its midpoint.

Sequence of recombinant human HDAC6 (Q9UBN7 whole entry): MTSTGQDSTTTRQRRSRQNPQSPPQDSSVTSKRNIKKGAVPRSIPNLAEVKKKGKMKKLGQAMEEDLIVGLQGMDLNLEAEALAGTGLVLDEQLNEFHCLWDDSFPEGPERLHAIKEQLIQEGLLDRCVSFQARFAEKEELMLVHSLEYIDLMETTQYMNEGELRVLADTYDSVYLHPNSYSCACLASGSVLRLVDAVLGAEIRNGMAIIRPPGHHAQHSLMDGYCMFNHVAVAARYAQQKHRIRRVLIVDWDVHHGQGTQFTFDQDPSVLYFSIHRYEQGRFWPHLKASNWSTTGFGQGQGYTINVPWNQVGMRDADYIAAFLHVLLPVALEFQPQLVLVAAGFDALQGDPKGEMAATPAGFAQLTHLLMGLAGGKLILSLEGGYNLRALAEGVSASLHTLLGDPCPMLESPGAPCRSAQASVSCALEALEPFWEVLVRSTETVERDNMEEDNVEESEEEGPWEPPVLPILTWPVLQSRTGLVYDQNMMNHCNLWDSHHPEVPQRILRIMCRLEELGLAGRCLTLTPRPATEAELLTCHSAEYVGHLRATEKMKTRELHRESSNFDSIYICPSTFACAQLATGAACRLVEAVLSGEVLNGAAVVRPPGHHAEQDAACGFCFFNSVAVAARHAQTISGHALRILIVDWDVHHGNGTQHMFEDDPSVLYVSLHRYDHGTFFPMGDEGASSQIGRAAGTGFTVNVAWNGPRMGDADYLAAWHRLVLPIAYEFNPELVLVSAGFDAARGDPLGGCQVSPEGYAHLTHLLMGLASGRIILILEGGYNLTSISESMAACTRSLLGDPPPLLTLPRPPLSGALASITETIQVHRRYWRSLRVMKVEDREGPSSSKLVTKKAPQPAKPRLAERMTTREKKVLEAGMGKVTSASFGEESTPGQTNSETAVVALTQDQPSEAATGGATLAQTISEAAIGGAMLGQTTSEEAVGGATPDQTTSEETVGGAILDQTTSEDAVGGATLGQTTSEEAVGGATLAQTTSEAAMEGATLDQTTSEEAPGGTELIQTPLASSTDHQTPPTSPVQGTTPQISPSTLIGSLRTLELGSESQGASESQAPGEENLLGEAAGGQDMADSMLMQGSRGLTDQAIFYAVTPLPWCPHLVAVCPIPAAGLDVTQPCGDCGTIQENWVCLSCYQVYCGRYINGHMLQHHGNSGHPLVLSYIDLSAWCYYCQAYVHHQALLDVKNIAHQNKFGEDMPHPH
Sequence of recombinant human HDAC1 (Q13547 whole entry): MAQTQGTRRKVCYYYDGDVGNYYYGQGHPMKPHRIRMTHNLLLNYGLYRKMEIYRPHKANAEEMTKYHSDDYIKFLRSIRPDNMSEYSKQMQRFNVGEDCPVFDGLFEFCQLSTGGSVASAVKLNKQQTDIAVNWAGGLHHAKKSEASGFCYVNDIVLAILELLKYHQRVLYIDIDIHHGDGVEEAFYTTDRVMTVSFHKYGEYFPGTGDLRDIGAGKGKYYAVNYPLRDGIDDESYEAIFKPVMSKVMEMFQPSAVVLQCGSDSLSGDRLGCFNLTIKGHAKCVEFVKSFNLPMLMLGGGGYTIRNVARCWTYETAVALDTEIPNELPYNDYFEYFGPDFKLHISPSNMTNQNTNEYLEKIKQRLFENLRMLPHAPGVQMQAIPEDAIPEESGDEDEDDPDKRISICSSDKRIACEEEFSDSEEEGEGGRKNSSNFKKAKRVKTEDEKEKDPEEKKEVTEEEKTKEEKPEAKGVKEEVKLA

Take `O=C(Nc1cccc(-c2cn(Cc3ccc(-c4nnc(C(F)F)o4)c(F)c3F)nn2)c1)N1CCOCC1` [compound 338, N-[3-[1-[[4-[5-(difluoromethyl)-1,3,4-oxadiazol-2-yl]-2,3-difluorophenyl]methyl]triazol-4-yl]phenyl]morpholine-4-carboxamide]: the results for the IC50 on recombinant human HDAC6 and on recombinant human HDAC1 were 101 nM and greater than 1e+06 nM, respectively.
On to `Nc1nc2ccc(-c3cn(Cc4ccc(-c5nnc(C(F)F)o5)cc4F)nn3)cc2s1` [compound 339, 6-[1-[[4-[5-(difluoromethyl)-1,3,4-oxadiazol-2-yl]-2-fluorophenyl]methyl]triazol-4-yl]-1,3-benzothiazol-2-amine], for which the IC50 on recombinant human HDAC6 is 24 nM; at recombinant human HDAC1 it was greater than 1e+06 nM.
As to `Nc1nc2ccc(-c3cn(Cc4ccc(-c5nnc(C(F)F)o5)cc4)cn3)cc2s1` [compound 306, 6-[1-[[4-[5-(difluoromethyl)-1,3,4-oxadiazol-2-yl]phenyl]methyl]imidazol-4-yl]-1,3-benzothiazol-2-amine], the values for the IC50 at recombinant human HDAC6 and on recombinant human HDAC1 were 32 nM and greater than 1e+06 nM, respectively.
Consider `O=C1Nc2cc(-c3cn(Cc4ccc(-c5nnc(C(F)F)o5)cc4)nn3)ccc2C12CCNCC2` [compound 161, 6-(1-(4-(5-(difluoromethyl)-1,3,4-oxadiazol-2-yl)benzyl)-1H-1,2,3-triazol-4-yl)spiro[indoline-3,4′-piperidin]-2-one], for which the values for the IC50 at recombinant human HDAC6 and at recombinant human HDAC1 were 75 nM and greater than 200000 nM, respectively.
For `Nc1ccc(-c2noc(Cc3ccc(-c4nnc(C(F)F)o4)cc3F)n2)cc1` [compd. 419, 4-(5-(4-(5-(difluoromethyl)-1,3,4-oxadiazol-2-yl)-2-fluorobenzyl)-1,2,4-oxadiazol-3-yl)aniline] the same measures were 64 nM and greater than 1e+06 nM.
As for `NC(=S)Nc1cccc(-c2cn(Cc3c(F)cc(-c4nnc(C(F)F)o4)cc3F)nn2)c1` [compound 175, 1-(3-(1-(4-(5-(difluoromethyl)-1,3,4-oxadiazol-2-yl)-2,6-difluorobenzyl)-1H-1,2,3-triazol-4-yl)phenyl)thiourea], the figures for the IC50 at recombinant human HDAC6 and at recombinant human HDAC1 were 88 nM and greater than 200000 nM, respectively.
For `[2H]C([2H])(c1ccc(-c2nnc(C(F)F)o2)cn1)n1cc(-c2cccc(NC(=O)N3CCOCC3)c2)nn1` [compound 369, N-[3-[1-[dideuterio-[5-[5-(difluoromethyl)-1,3,4-oxadiazol-2-yl]pyridin-2-yl]methyl]triazol-4-yl]phenyl]morpholine-4-carboxamide] the same measures were 17 nM and greater than 1e+06 nM.
Consider `CC(C)(C)OC(=O)N1CCC2(C1)C(=O)Nc1ccc(-c3cn(Cc4ccc(-c5nnc(C(F)F)o5)cn4)nn3)cc12` (single isomer, unassigned) [compound 266, tert-butyl 5-[1-({5-[5-(difluoromethyl)-1,3,4-oxadiazol-2-yl]pyridin-2-yl}methyl)-1H-1,2,3-triazol-4-yl]-2-oxo-1,2-dihydrospiro[indole-3,3′-pyrrolidine]-1′-carboxylate], for which the figures for the IC50 on recombinant human HDAC6 and on recombinant human HDAC1 were 35 nM and greater than 200000 nM, respectively.
For the molecule `Nc1nc2ccc(-c3cn(Cc4ccc(-c5nnc(C(F)F)o5)cn4)cn3)cc2s1` [compound 307, 6-[1-[[5-[5-(difluoromethyl)-1,3,4-oxadiazol-2-yl]pyridin-2-yl]methyl]imidazol-4-yl]-1,3-benzothiazol-2-amine], the IC50 on recombinant human HDAC6 is 11 nM; at recombinant human HDAC1 it was greater than 1e+06 nM.
For `Cc1ncccc1-c1cn(Cc2ccc(-c3nnc(C(F)F)o3)cn2)nn1` [compound 115, 2-(difluoromethyl)-5-(6-((4-(2-methylpyridin-3-yl)-1H-1,2,3-triazol-1-yl)methyl)pyridin-3-yl)-1,3,4-oxadiazole] the same measures were 43 nM and greater than 200000 nM.
`FC(F)c1nnc(-c2ccc(Cn3nnc(C4(c5ccccc5)CC4)n3)cc2)o1` [compound 256, 2-(difluoromethyl)-5-(4-((5-(1-phenylcyclopropyl)-2H-tetrazol-2-yl)methyl)phenyl)-1,3,4-oxadiazole]: the IC50 at recombinant human HDAC6 is 393 nM; at recombinant human HDAC1, greater than 200000 nM.
